Measured values: patent publication EP0513000B1, “MRI IMAGE ENHANCEMENT OF BONE AND RELATED TISSUE USING COMPLEXES OF PARAMAGNETIC CATIONS AND POLYPHOSPHONATE LIGANDS” (CONCAT LTD., priority 1989, dated 1991)

How the values were obtained:
[1] = Relative equilibrium constant measurements (competition with EHPG for Fe(III)); type: physicochemical; conditions: 0.25M phosphate buffer at pH 7.2, heated overnight at 100°C, TLC and colour
Protocol: The highly colored Fe(III) complex of EHPG (used for comparison in part E of this example) was dissolved in 0.25 M phosphate buffer at pH 7.2, and an equimolar quantity of N,N',N''-tris(dihydroxyphosphorylmethyl)-1,4,7-triazacyclononane was added. The solution was heated overnight at 100°C.
The reverse experiment was also performed. The Fe(III) complex of N,N',N''-tris(dihydroxyphosphorylmethyl)-1,4,7-triazacyclononane was thus dissolved in 0.25M phosphate buffer at pH 7.2, and an equimolar quantity of EHPG was added. The solution was heated overnight at 100°C.

mice = assay: Toxicity after intravenous administration to mice, two-week observation; type: in vivo; conditions: for Survived?: mice, intravenous, alive at end of two-week period
Protocol: Physiological salts of the various ligand/metal cation complexes described herein were administered intravenously to mice. […] The mice were considered to have "survived" administration of each agent if they were alive at the end of the two-week period.

[2] = Proton longitudinal relaxivity (1/τ1) measurements; type: physicochemical; conditions: 20 MHz, 0.1 M phosphate buffer at pH 7.2
Protocol: Measurements of proton longitudinal relaxivity (1/τ1) were performed on some of the test species listed above, and compared with those obtained using the following complexes outside the scope of this invention: (i) Gd(III) with diethylenetriamine pentaacetic acid (DTPA), and (ii) Fe(III) with N,N'-ethylenebis[(2-hydroxyphenyl)-glycinate] (EHPG). All measurements were obtained using a Bruckner PC/20 Minispec device operating at 20 MHz. All samples were dissolved in 0.1 M phosphate buffer at pH 7.2.

[3] = Stability: TLC before and after heating; type: physicochemical; conditions: heating at 100°C for two hours
Protocol: TLC was performed on test species A and D, both before and after heating at 100°C for two hours.

Water solubility = type: physicochemical; conditions: read-out: soluble in water at concentrations
[4] = Whole body clearance of radioisotopically labeled analogs (whole body counting); type: in vivo; conditions: mice, intravenous, radioisotope analog
Protocol: Radioisotopically labeled analogs of test species selected from those listed above were synthesized, using radioisotopes of Fe(III) (iron-59), Cr(III) (chromium-51) and Gd(III) (gadolinium-153), and employing the general synthesis procedures described above. The resulting complexes were subjected to radiochromatography to insure acceptable radiopurity and identity with the parent complexes. They were then administered intravenously to mice in order to measure in vivo distribution and whole body clearance.
(§1) The location of the test species in the mice's bodies and the rate at which the test species were cleared from the mice's bodies after administration were determined by radioassay of tissues and whole body counting, both performed by conventional gamma ray counting techniques. Concentration of activity in tissues was determined as activity per gram of tissue, and whole body counts were expressed as the percentage of whole body activity at a given time with respect to whole body activity immediately after injection. The results were as follows: • 1. Radioisotopes of Test Species A and B. In vivo distribution. […] By measurements taken one hour after administration, the ratio of the concentration of the test species in bone to that in whole blood was generally over 25:1, while the ratio of their concentration in kidney to that in blood was generally over 10:1. Even after 24 hours, when less than 5% of the administered dose remained in the body (see below), a high ratio of concentration of the test species in bone and kidney to that in blood was maintained. […] Whole Body Clearance. […] Radioisotope of Test species C. In vivo distribution. One hour after administration, the measured bone-to-blood concentration ratio was greater than 4.5:1, and the measured kidney-to-blood ratio was greater than 5.5:1. […] Whole Body Clearance. Within 24 hours of administration, over 95% of the tent species had been cleared from the body. • 3. Radioisotope of Test Species D. In vivo distribution. One hour after administration, the measured bone-to-blood concentration ratio was greater than 6:1, and the measured kidney-to-blood ratio was greater than 10:1. […] Whole Body Clearance.

[5] = In vivo distribution of radioisotopically labeled analogs (radioassay of tissues); set-up: species or system mice; conditions: radioisotope analog; for concentration of agent in brain: within the first hour
Protocol: as §1, with “The resulting complexes were subjected to radiochromatography to insure acceptable radiopurity and identity with the parent complexes. They were then administered intravenously to mice in order to measure in vivo distribution and whole body clearance. The location” for “The location”

[6] = within 24 hours of administration

Fe(III) complex of N,N',N''-tris(dihydroxyphosphorylmethyl)-1,4,7-triazacyclononane
species present after equimolar EHPG was added to the Fe(III) complex (reverse experiment) [1]: TLC showed only the presence of the Fe(III) N,N',N''-tris(dihydroxyphosphorylmethyl)-1,4,7-triazacyclononane complex

O=P(O)(O)CN1CCN(CP(=O)(O)O)CCN(CP(=O)(O)O)CC1 [Test Species G, N,N',N''-tris(dihydroxyphosphorylmethyl)-1,4,7-triazacyclononane]
Survived? (mice; Dose 3.1mM/kg, Rate 0.8mM/min/kg): yes

O=P(O)(O)CN1CCN(CP(=O)(O)O)CCN(CP(=O)(O)O)CC1 [Test Species A, N,N',N''-tris(dihydroxyphosphorylmethyl)-1,4,7-triazacyclononane]
proton longitudinal relaxivity relative to the Fe(III) complex of EHPG (times greater) [2]: two to three
Survived? (mice; Dose 11.8mM/kg, Rate 0.4mM/sec/kg): yes
toxicity observed, versus the single, chromatographically distinct product (mice; preparations made by alternate complexation procedures, containing multiple forms of the complex by TLC): substantially greater
TLC before and after heating [3]: A single, chromatographically distinct spot which did not vary as a result of the heating
solubility (Water solubility): > 500 mg/mL
administered dose remained in the body ([4]; after 24 hours): less than 5%
cleared from the body [4, 6]: over 95%
route of whole body clearance [4, 6]: almost exclusively through the urine
accumulation of activity in fractured tibia versus contralateral normal tibia ([5]; mice with a tibia broken two to four weeks prior to the study): significantly greater accumulation of activity
ratio of concentration in bone and kidney to that in blood ([5]; mice, intravenous, after 24 hours): high ratio
activity in the brain ([5]; mice, intravenous, at all times following administration): very low activity
concentration of radioactivity in bone and kidneys ([5]; mice, intravenous, within 2 minutes following administration): evidence of concentration of radioactivity in bone and kidneys

O=P(O)(O)CN1CCN(CP(=O)(O)O)CCN(CP(=O)(O)O)CC1 [Test Species B, N,N',N''-tris(dihydroxyphosphorylmethyl)-1,4,7-triazacyclononane]
Survived? (mice; Dose 9.8mM/kg, Rate 0.7mM/min/kg): yes

O=P(O)(O)CN1CCN(CP(=O)(O)O)CCN(CP(=O)(O)O)CC1 [N,N',N''-tris(dihydroxyphosphorylmethyl)-1,4,7-triazacyclononane]
species present after equimolar ligand was added to Fe(III) complex of EHPG [1]: TLC showed only the presence of the Fe(III) N,N',N''-tris(dihydroxyphosphorylmethyl)-1,4,7-triazacyclononane complex

O=P(O)(O)CCN1CCN(CCP(=O)(O)O)CCN(CCP(=O)(O)O)CC1 [Test Species C, N,N',N''-tris(dihydroxyphosphorylethyl)-1,4,7-triazacyclononane]
Survived? (mice; Dose 10.0mM/kg, Rate 2.0mM/min/kg): yes
cleared from the body [4, 6]: over 95%
concentration of agent in brain ([5]; mice, intravenous): very low concentration

O=P(O)(O)CN1CCN(CP(=O)(O)O)CCN(CP(=O)(O)O)CC1 [Test Species D, N,N',N''-tris(dihydroxyphosphorylmethyl)-1,4,7-triazacyclononane]
Survived? (mice; Dose 2.9mM/kg, Rate 0.5mM/sec/kg): yes
concentration of agent in brain ([5]; mice, intravenous): very low concentration

O=P(O)(O)CN1CCN(CP(=O)(O)O)CCN(CP(=O)(O)O)CC1 [Test Species E, N,N',N''-tris(dihydroxyphosphorylmethyl)-1,4,7-triazacyclononane]
Survived? (mice; Dose 2.9mM/kg, Rate 1.1mM/min/kg): yes

O=P(O)(O)CN1CCN(CP(=O)(O)O)CCN(CP(=O)(O)O)CC1 [Test Species F, N,N',N''-tris(dihydroxyphosphorylmethyl)-1,4,7-triazacyclononane]
Survived? (mice; Dose 8.0mM/kg, Rate 2.6mM/min/kg): yes
